Source: patent publication US8815950B2, “Pharmaceutical compositions and method of using levodopa and carbidopa” (Janssen Biotech, Inc., priority 2003, dated 2014)
Values after ≈ are worked out from the molar mass of the structure shown. Where two headings read alike, the source gives them in different places. Values belong to the compound of their own block, whether it stands above or below them.

Legend:
Assay type in all cases: physicochemical
[1] = Stability of levodopa and carbidopa solutions, HPLC potency test
Protocol: A formulation of: […] This powder mixture was dissolved in water at a concentration of 5.5 mg/ml of levodopa. This solution was filter through a 0.22 micrometer filter (with PVDF membrane) and then stored at temperatures of 4 degrees C., 25 degrees C. and 40 degrees C. […] This powder mixture was dissolved in water at concentration of 1.0 mg/ml of levodopa. This solution was filtered through a 0.22 micrometer filter (with PVDF membrane) and then stored at temperatures of 4 degrees C., 25 degrees C. and 40 degrees C. The sample solutions were submitted for HPLC potency test at each time point. The stability was monitored in percentage change compared to the initial potency.

[2] = Solubility of levodopa in citrate buffer at varying pH and buffer strength
Protocol: Solutions were made using Citric acid and tribasic Sodium Citrate dihydrate Initially a 1.0 M citric acid solution was made by weighing out 19.2 g Citric acid (FW 192.1) into a 100 mL volumetric flask and diluting with HPLC grade water. This was repeated with the Sodium Citrate (FW 294.1), by weighting out 29.4 g of sodium citrate in into a 100 mL volumetric flask and diluting to 100 mL with water. A series of 8 of 20 mL scintillation vials were then labeled and prepared as follows:
These pH adjustments were made with the sodium citrate (also 1.0 M) to keep a consistent molarity with the citrate. From these mother vials, 2 subsequent sets of solution were made for the molar concentrations 0.45 and 0.15 M. 0.45 M is for a 3:1 buffer and 0.15 M is for a 1:1 buffer. These solutions were also pH adjusted with molar equivalent solution to keep the pH value consistent throughout each dilution and after adding the levodopa.

[3] = Levodopa solubility in 3.5 mg/ml ascorbic acid solution; conditions: aqueous buffer, thermodynamic from solid, stirring 24 hour at RT, read-out: concentration of levodopa in the filtration (maximum solubility)
Protocol: Levedopa solubility in ascorbic acid solution an ascorbic acid concentration of 3.5 mg/ml was tested. A sample of 3.5 mg/ml ascorbic acid was made by adding 70.0 mg of ascorbic acid into 20 ml of water. Then, 80.0 mg of levodopa powder was dissolved into the 3.5 mg/ml ascorbic sample by stirring for 24 hour at RT. The projected levodopa concentration was 4 mg/ml. The sample was filtered through a 0.22μ PVDF filter to remove the insoluble levodopa. The filtration was assayed by HPLC at 10× dilution with water. The HPLC data indicated the concentration of levodopa in the filtration was 2.0 mg/ml.

[4] = Levodopa/Ascorbic/Carbidopa/at 1/3/0.2 at 4 C., 1 Day
[5] = Levodopa/Ascorbic/Carbidopa/at 1/3/0.2 at 4 C., 2 Day
[6] = Levodopa/Ascorbic/Carbidopa/at 1/3/0.2 at 4 C., 7 Day
[7] = Levodopa/Ascorbic/Carbidopa/at 1/3/0.2 at 4 C., Initial
[8] = Levodopa/Ascorbic/Carbidopa/at 1/3/0.2 at 25 C., 1 Day
[9] = Levodopa/Ascorbic/Carbidopa/at 1/3/0.2 at 25 C., 2 Day
[10] = Levodopa/Ascorbic/Carbidopa/at 1/3/0.2 at 25 C., 7 Day
[11] = Levodopa/Ascorbic/Carbidopa/at 1/3/0.2 at 25 C., Initial
[12] = Levodopa/Ascorbic/Carbidopa/at 1/3/0.2 at 40 C., 1 Day
[13] = Levodopa/Ascorbic/Carbidopa/at 1/3/0.2 at 40 C., 2 Day
[14] = Levodopa/Ascorbic/Carbidopa/at 1/3/0.2 at 40 C., 7 Day
[15] = Levodopa/Ascorbic/Carbidopa/at 1/3/0.2 at 40 C., Initial
[16] = Levodopa/Citric/Carbidopa/Sucrose at 1/3/0.2/1 at 4 C., 1 Day
[17] = Levodopa/Citric/Carbidopa/Sucrose at 1/3/0.2/1 at 4 C., 2 Day
[18] = Levodopa/Citric/Carbidopa/Sucrose at 1/3/0.2/1 at 4 C., 3 Day
[19] = Levodopa/Citric/Carbidopa/Sucrose at 1/3/0.2/1 at 4 C., 7 Day
[20] = Levodopa/Citric/Carbidopa/Sucrose at 1/3/0.2/1 at 4 C., Initial
[21] = Levodopa/Citric/Carbidopa/Sucrose at 1/3/0.2/1 at 25 C., 1 Day
[22] = Levodopa/Citric/Carbidopa/Sucrose at 1/3/0.2/1 at 25 C., 2 Day
[23] = Levodopa/Citric/Carbidopa/Sucrose at 1/3/0.2/1 at 25 C., 3 Day
[24] = Levodopa/Citric/Carbidopa/Sucrose at 1/3/0.2/1 at 25 C., 7 Day
[25] = Levodopa/Citric/Carbidopa/Sucrose at 1/3/0.2/1 at 25 C., Initial
[26] = Levodopa/Citric/Carbidopa/Sucrose at 1/3/0.2/1 at 40 C., 1 Day
[27] = Levodopa/Citric/Carbidopa/Sucrose at 1/3/0.2/1 at 40 C., 2 Day
[28] = Levodopa/Citric/Carbidopa/Sucrose at 1/3/0.2/1 at 40 C., 3 Day
[29] = Levodopa/Citric/Carbidopa/Sucrose at 1/3/0.2/1 at 40 C., 7 Day
[30] = Levodopa/Citric/Carbidopa/Sucrose at 1/3/0.2/1 at 40 C., Initial

- HPLC potency, percentage compared to the initial potency [1, 4]: 101%
- HPLC potency, percentage compared to the initial potency [1, 5]: 101%
- HPLC potency, percentage compared to the initial potency [1, 6]: 101%
- HPLC potency, percentage compared to the initial potency [1, 7]: 100%
- HPLC potency, percentage compared to the initial potency [1, 8]: 99%
- HPLC potency, percentage compared to the initial potency [1, 9]: 97%
- HPLC potency, percentage compared to the initial potency [1, 10]: 87%
- HPLC potency, percentage compared to the initial potency [1, 11]: 100%
- HPLC potency, percentage compared to the initial potency [1, 12]: 94%
- HPLC potency, percentage compared to the initial potency [1, 13]: 88%
- HPLC potency, percentage compared to the initial potency [1, 14]: 88%
- HPLC potency, percentage compared to the initial potency [1, 15]: 100%
- HPLC potency, percentage compared to the initial potency [1, 16]: 100%
- HPLC potency, percentage compared to the initial potency [1, 17]: 100%
- HPLC potency, percentage compared to the initial potency [1, 18]: 101%
- HPLC potency, percentage compared to the initial potency [1, 19]: 100%
- HPLC potency, percentage compared to the initial potency [1, 20]: 100%
- HPLC potency, percentage compared to the initial potency [1, 21]: 98%
- HPLC potency, percentage compared to the initial potency [1, 22]: 96%
- HPLC potency, percentage compared to the initial potency [1, 23]: 96%
- HPLC potency, percentage compared to the initial potency [1, 24]: 91%
- HPLC potency, percentage compared to the initial potency [1, 25]: 100%
- HPLC potency, percentage compared to the initial potency [1, 26]: 91%
- HPLC potency, percentage compared to the initial potency [1, 27]: 84%
- HPLC potency, percentage compared to the initial potency [1, 28]: 81%
- HPLC potency, percentage compared to the initial potency [1, 29]: 75%
- HPLC potency, percentage compared to the initial potency [1, 30]: 100%
SMILES: C[C@@](Cc1ccc(O)c(O)c1)(NN)C(=O)O [Carbidopa]

- solubility ([2]; pH 1.5, aqueous buffer, Citrate buffer 0.15M pH1.5, read-out: Conc (levodopa solubility)): 7200 µg/mL (≈ 36.5 mM)
- solubility ([2]; pH 1.5, aqueous buffer, Citrate buffer 0.45M pH1.5, read-out: Conc (levodopa solubility)): 11400 µg/mL (≈ 57.8 mM)
- solubility ([2]; pH 1.5, aqueous buffer, Citrate buffer 1.0M pH 1.5, read-out: Conc (levodopa solubility)): 17900 µg/mL (≈ 90.9 mM)
- solubility ([2]; pH 2.5, aqueous buffer, Citrate buffer 0.15M pH2.5, read-out: Conc (levodopa solubility)): 4870 µg/mL (≈ 24.7 mM)
- solubility ([2]; pH 2.5, aqueous buffer, Citrate buffer 0.45M pH2.5, read-out: Conc (levodopa solubility)): 5820 µg/mL (≈ 29.5 mM)
- solubility ([2]; pH 2.5, aqueous buffer, Citrate buffer 1.0M pH 2.5, read-out: Conc (levodopa solubility)): 7430 µg/mL (≈ 37.7 mM)
- solubility ([2]; pH 3, aqueous buffer, Citrate buffer 0.15M pH3.0, read-out: Conc (levodopa solubility)): 4210 µg/mL (≈ 21.3 mM)
- solubility ([2]; pH 3, aqueous buffer, Citrate buffer 0.45M pH3.0, read-out: Conc (levodopa solubility)): 4850 µg/mL (≈ 24.6 mM)
- solubility ([2]; pH 3, aqueous buffer, Citrate buffer 1.0M pH 3.0, read-out: Conc (levodopa solubility)): 5930 µg/mL (≈ 30.1 mM)
- solubility ([2]; pH 3.5, aqueous buffer, Citrate buffer 0.15M pH3.5, read-out: Conc (levodopa solubility)): 3900 µg/mL (≈ 19.8 mM)
- solubility ([2]; pH 3.5, aqueous buffer, Citrate buffer 0.45M pH3.5, read-out: Conc (levodopa solubility)): 4510 µg/mL (≈ 22.9 mM)
- solubility ([2]; pH 3.5, aqueous buffer, Citrate buffer 1.0M pH 3.5, read-out: Conc (levodopa solubility)): 5230 µg/mL (≈ 26.5 mM)
- solubility ([2]; pH 4, aqueous buffer, Citrate buffer 0.15M pH4.0, read-out: Conc (levodopa solubility)): 3790 µg/mL (≈ 19.2 mM)
- solubility ([2]; pH 4, aqueous buffer, Citrate buffer 0.45M pH4.0, read-out: Conc (levodopa solubility)): 4250 µg/mL (≈ 21.6 mM)
- solubility ([2]; pH 4, aqueous buffer, Citrate buffer 1.0M pH 4.0, read-out: Conc (levodopa solubility)): 4650 µg/mL (≈ 23.6 mM)
- solubility ([2]; pH 4.5, aqueous buffer, Citrate buffer 0.15M pH4.5, read-out: Conc (levodopa solubility)): 3880 µg/mL (≈ 19.7 mM)
- solubility ([2]; pH 4.5, aqueous buffer, Citrate buffer 0.45M pH4.5, read-out: Conc (levodopa solubility)): 4250 µg/mL (≈ 21.6 mM)
- solubility ([2]; pH 4.5, aqueous buffer, Citrate buffer 1.0M pH 4.5, read-out: Conc (levodopa solubility)): 4440 µg/mL (≈ 22.5 mM)
- solubility ([2]; pH 5, aqueous buffer, Citrate buffer 0.15M pH5.0, read-out: Conc (levodopa solubility)): 3880 µg/mL (≈ 19.7 mM)
- solubility ([2]; pH 5, aqueous buffer, Citrate buffer 0.45M pH5.0, read-out: Conc (levodopa solubility)): 4150 µg/mL (≈ 21 mM)
- solubility ([2]; pH 5, aqueous buffer, Citrate buffer 1.0M pH 5.0, read-out: Conc (levodopa solubility)): 4170 µg/mL (≈ 21.1 mM)
- solubility ([2]; pH 6, aqueous buffer, Citrate buffer 0.15M pH6.0, read-out: Conc (levodopa solubility)): 3950 µg/mL (≈ 20 mM)
- solubility ([2]; pH 6, aqueous buffer, Citrate buffer 0.45M pH6.0, read-out: Conc (levodopa solubility)): 4160 µg/mL (≈ 21.1 mM)
- solubility ([2]; pH 6, aqueous buffer, Citrate buffer 1.0M pH 6.0, read-out: Conc (levodopa solubility)): 3870 µg/mL (≈ 19.6 mM)
- HPLC potency, percentage compared to the initial potency [1, 4]: 100%
- HPLC potency, percentage compared to the initial potency [1, 5]: 100%
- HPLC potency, percentage compared to the initial potency [1, 6]: 102%
- HPLC potency, percentage compared to the initial potency [1, 7]: 100%
- HPLC potency, percentage compared to the initial potency [1, 8]: 100%
- HPLC potency, percentage compared to the initial potency [1, 9]: 100%
- HPLC potency, percentage compared to the initial potency [1, 10]: 102%
- HPLC potency, percentage compared to the initial potency [1, 11]: 100%
- HPLC potency, percentage compared to the initial potency [1, 12]: 100%
- HPLC potency, percentage compared to the initial potency [1, 13]: 101%
- HPLC potency, percentage compared to the initial potency [1, 14]: 104%
- HPLC potency, percentage compared to the initial potency [1, 15]: 100%
- HPLC potency, percentage compared to the initial potency [1, 16]: 100%
- HPLC potency, percentage compared to the initial potency [1, 17]: 100%
- HPLC potency, percentage compared to the initial potency [1, 18]: 100%
- HPLC potency, percentage compared to the initial potency [1, 19]: 100%
- HPLC potency, percentage compared to the initial potency [1, 20]: 100%
- HPLC potency, percentage compared to the initial potency [1, 21]: 100%
- HPLC potency, percentage compared to the initial potency [1, 22]: 100%
- HPLC potency, percentage compared to the initial potency [1, 23]: 100%
- HPLC potency, percentage compared to the initial potency [1, 24]: 100%
- HPLC potency, percentage compared to the initial potency [1, 25]: 100%
- HPLC potency, percentage compared to the initial potency [1, 26]: 100%
- HPLC potency, percentage compared to the initial potency [1, 27]: 100%
- HPLC potency, percentage compared to the initial potency [1, 28]: 100%
- HPLC potency, percentage compared to the initial potency [1, 29]: 100%
- HPLC potency, percentage compared to the initial potency [1, 30]: 100%
- solubility at 24 h [3]: 2000 µg/mL (≈ 10.1 mM)
SMILES: N[C@@H](Cc1ccc(O)c(O)c1)C(=O)O [Levodopa]
